Reference: KR20130112248A, “피라졸로피리미딘 유도체 화합물, 이를 포함하는 산화질소 생성 억제용 조성물 및 뇌신경 질환 예방 및 치료용 약학적 조성물” (한국과학기술연구원, priority 2012, dated 2013)

Each molecule was assayed on NO production in BV-2 cells [NO 생성; BV-2 세포] (assay: Nitric oxide (NO) quantification (nitrite, Griess reaction) in LPS-activated BV-2 cells). Conditions: 20 μM, LPS 0.2 ㎍/mL, 24 h co-treatment, nitrite by Griess at 540 nm, 1440 min.
Assay type: cell-based
With CC(Nc1nc([S+](C)[O-])nc2c1cnn2Cc1ccccc1)c1ccccc1 (stereo not shown) [화합물 22h, 1-벤질-6-(메틸설파이닐)-N-(1-페닐에틸)-1H-피라졸로[3,4-d]피리미딘-4-아민] the “NO (% of LPS)” value was 59±1.4 % of LPS. CC(Nc1nc([S+](C)[O-])nc2c1cnn2Cc1ccccc1)c1ccccc1 (stereo not shown) [화합물 22i, 1-벤질-6-(메틸설파이닐)-N-(1-페닐에틸)-1H-피라졸로[3,4-d]피리미딘-4-아민] was tested, and the “NO (% of LPS)” value was 81±7.5 % of LPS.

Same assay, conditions: Mus musculus, BV-2, 24 h, 20 μM, LPS 0.2 ㎍/mL, 24 h co-treatment, nitrite by Griess at 540 nm
In the case of COc1cccc(CCn2ncc3c(NCc4cccc(OC)c4)nc(SC)nc32)c1 [화합물 18d, N-(3-메톡시벤질)-1-(3-메톡시펜에틸)-6-(메틸티오)-1H-피라졸로[3,4-d]피리미딘-4-아민], the activity at 20 µM is reported as 39 ± 4.8%. In the case of COc1ccc(CNc2nc(SC)nc3c2cnn3CCc2cccc(OC)c2)cc1 [화합물 18e, 1-(3-메톡시펜에틸)-N-(4-메톡시벤질)-6-(메틸티오)-1H-피라졸로[3,4-d]피리미딘-4-아민], the activity at 20 µM is reported as 44 ± 1.3%. For COc1cccc(CCn2ncc3c(NCc4ccc(C)cc4)nc(SC)nc32)c1 [화합물 18f, 1-(3-메톡시펜에틸)-N-(4-메틸벤질)-6-(메틸티오)-1H-피라졸로[3,4-d]피리미딘-4-아민], the activity at 20 µM was 56 ± 3.1%. Work on COc1cccc(CCn2ncc3c(NCc4ccc(F)cc4)nc(SC)nc32)c1 [화합물 18g, 1-(3-메톡시펜에틸)-N-(4-플루오로벤질)-6-(메틸티오)-1H-피라졸로[3,4-d]피리미딘-4-아민] yielded an activity at 20 µM of 58 ± 4.8%. In the case of COc1cccc(CCn2ncc3c(NCc4ccccc4)nc(SC)nc32)c1 [화합물 18h, 1-(3-메톡시펜에틸)-N-벤질-6-(메틸티오)-1H-피라졸로[3,4-d]피리미딘-4-아민], the activity at 20 µM is reported as 56 ± 3.1%. For C=CCNc1nc(SC)nc2c1cnn2CCc1cccc(OC)c1 [화합물 18i, 1-(3-메톡시펜에틸)-N-알릴-6-(메틸티오)-1H-피라졸로[3,4-d]피리미딘-4-아민], the activity at 20 µM was 78 ± 4.4%. With COc1cccc(CNc2nc(SC)nc3c2cnn3CCc2ccccc2OC)c1 [화합물 19a, 1-(2-메톡시펜에틸)-N-(3-메톡시벤질)-6-(메틸티오)-1H-피라졸로[3,4-d]피리미딘-4-아민] the activity at 20 µM was 32 ± 1.1%. Molecule COc1ccc(CNc2nc(SC)nc3c2cnn3CCc2ccccc2OC)cc1 [화합물 19b, 1-(2-메톡시펜에틸)-N-(4-메톡시벤질)-6-(메틸티오)-1H-피라졸로[3,4-d]피리미딘-4-아민] has an activity at 20 µM of 27 ± 6.8%. Work on COc1ccccc1CCn1ncc2c(NCc3ccc(F)cc3)nc(SC)nc21 [화합물 19d, 1-(2-메톡시펜에틸)-N-(4-플루오로벤질)-6-(메틸티오)-1H-피라졸로[3,4-d]피리미딘-4-아민] yielded an activity at 20 µM of 40 ± 1.1%. COc1ccccc1CCn1ncc2c(NCc3ccccc3)nc(SC)nc21 [화합물 19e, 1-(2-메톡시펜에틸)-N-벤질-6-(메틸티오)-1H-피라졸로[3,4-d]피리미딘-4-아민] gave an activity at 20 µM of 60 ± 5.9%. Molecule C=CCNc1nc(SC)nc2c1cnn2CCc1ccccc1OC [화합물 19f, 1-(2-메톡시펜에틸)-N-알릴-6-(메틸티오)-1H-피라졸로[3,4-d]피리미딘-4-아민] has an activity at 20 µM of 75 ± 8.7%. In the case of COc1ccccc1CCn1ncc2c(NCc3ccccc3C)nc(SC)nc21 [화합물 19g, N-(2-메톡시벤질)-1-(2-메톡시펜에틸)-6-(메틸티오)-1H-피라졸로[3,4-d]피리미딘-4-아민], the activity at 20 µM is reported as 27.4 ± 0.7%. For COc1ccccc1CCn1ncc2c(NCc3ccccc3Cl)nc(SC)nc21 [화합물 19h, N-(2-클로로벤질)-1-(2-메톡시펜에틸)-6-(메틸티오)-1H-피라졸로[3,4-d]피리미딘-4-아민], the activity at 20 µM was 18 ± 1.2%. Work on COc1ccccc1CCn1ncc2c(NCc3ccccc3OC)nc(SC)nc21 [화합물 19i, N-(2-메톡시벤질)-1-(2-메톡시펜에틸)-6-(메틸티오)-1H-피라졸로[3,4-d]피리미딘-4-아민] yielded an activity at 20 µM of 23.1 ± 0.5%. CSc1nc(NCc2ccccc2Cl)c2cnn(-c3ccc(F)cc3)c2n1 [화합물 20a, N-(2-클로로벤질)-1-(4-플루오로페닐)-6-(메틸티오)-1H-피라졸로[3,4-d]피리미딘-4-아민] showed an activity at 20 µM of 48 ± 17.2%. In the case of COc1ccccc1CNc1nc(SC)nc2c1cnn2-c1ccc(F)cc1 [화합물 20b, N-(2-메톡시벤질)-1-(4-플루오로페닐)-6-(메틸티오)-1H-피라졸로[3,4-d]피리미딘-4-아민], the activity at 20 µM is reported as 48 ± 27.1%. CSc1nc(NCc2ccccc2C)c2cnn(-c3ccc(F)cc3)c2n1 [화합물 20c, N-(2-메틸벤질)-1-(4-프루오로페닐)-6-(메틸티오)-1H-피라졸로[3,4-d]피리미딘-4-아민] showed an activity at 20 µM of 47 ± 8%. In the case of COc1cccc(CNc2nc(SC)nc3c2cnn3-c2ccc(F)cc2)c1 [화합물 20d, N-(3-메톡시벤질)-1-(4-플루오로페닐)-6-(메틸티오)-1H-피라졸로[3,4-d]피리미딘-4-아민], the activity at 20 µM is reported as 43 ± 5.9%. COc1ccc(CNc2nc(SC)nc3c2cnn3-c2ccc(F)cc2)cc1 [화합물 20e, N-(4-메톡시벤질)-1-(4-플루오로페닐)-6-(메틸티오)-1H-피라졸로[3,4-d]피리미딘-4-아민] was tested, and the activity at 20 µM was 235%. Molecule CSc1nc(NCc2ccc(C)cc2)c2cnn(-c3ccc(F)cc3)c2n1 [화합물 20f, N-(4-메틸벤질)-1-(4-프루오로페닐)-6-(메틸티오)-1H-피라졸로[3,4-d]피리미딘-4-아민] has an activity at 20 µM of 62 ± 3.8%. In the case of CSc1nc(NCc2ccccc2Cl)c2cnn(-c3ccc(C)cc3)c2n1 [화합물 21a, N-(2-클로로벤질)-6-(메틸티오)-1-p-톨릴-1H-피라졸로[3,4-d]피리미딘-4-아민], the activity at 20 µM is reported as 37 ± 10.7%. For COc1ccccc1CNc1nc(SC)nc2c1cnn2-c1ccc(C)cc1 [화합물 21b, N-(2-메톡시벤질)-6-(메틸티오)-1-p-톨릴-1H-피라졸로[3,4-d]피리미딘-4-아민], the activity at 20 µM was 44 ± 25.2%. CSc1nc(NCc2ccccc2C)c2cnn(-c3ccc(C)cc3)c2n1 [화합물 21c, N-(2-메틸벤질)-6-(메틸티오)-1-p-톨릴-1H-피라졸로[3,4-d]피리미딘-4-아민] was tested, and the activity at 20 µM was 47 ± 6.8%. For COc1cccc(CNc2nc(SC)nc3c2cnn3-c2ccc(C)cc2)c1 [화합물 21d, N-(3-메톡시벤질)-6-(메틸티오)-1-p-톨릴-1H-피라졸로[3,4-d]피리미딘-4-아민], the activity at 20 µM was 42 ± 5.2%. For COc1ccc(CNc2nc(SC)nc3c2cnn3-c2ccc(C)cc2)cc1 [화합물 21e, N-(4-메톡시벤질)-6-(메틸티오)-1-p-톨릴-1H-피라졸로[3,4-d]피리미딘-4-아민], the activity at 20 µM was 39 ± 3%. CSc1nc(NCc2ccc(C)cc2)c2cnn(-c3ccc(C)cc3)c2n1 [화합물 21f, N-(4-메틸벤질)-6-(메틸티오)-1-p-톨릴-1H-피라졸로[3,4-d]피리미딘-4-아민] showed an activity at 20 µM of 49 ± 5.9%. Molecule CSc1nc(NC(c2ccccc2)c2ccc(Cl)cc2)c2cnn(-c3ccc(C)cc3)c2n1 (stereo not shown) [화합물 21g, N-((4-클로로페닐)(페닐)메틸)-6-(메틸티오)-1-p-톨릴-1H-피라졸로[3,4-d]피리미딘-4-아민] has an activity at 20 µM of 79 ± 1.8%. Molecule CSc1nc(NC(C)C2CCCCC2)c2cnn(-c3ccc(C)cc3)c2n1 (stereo not shown) [화합물 21h, N-(1-사이클로헥실에틸)-6-(메틸티오)-1-p-톨릴-1H-피라졸로[3,4-d]피리미딘-4-아민] has an activity at 20 µM of 73 ± 2.6%. Work on CSc1nc(NC(C)c2ccc(C)cc2)c2cnn(-c3ccc(C)cc3)c2n1 (stereo not shown) [화합물 21i, 6-(메틸티오)-1-p-톨릴-N-(1-p-톨릴에틸)-1H-피라졸로[3,4-d]피리미딘-4-아민] yielded an activity at 20 µM of 57 ± 1%. For COc1ccc([C@H](C)Nc2nc(SC)nc3c2cnn3-c2ccc(C)cc2)cc1 [화합물 21j, N-((S)-1-(4-메톡시페닐)에틸)-6-(메틸티오)-1-p-톨릴-1H-피라졸로[3,4-d]피리미딘-4-아민], the activity at 20 µM was 52 ± 1.7%. Work on C[S+]([O-])c1nc(NCc2ccccc2Cl)c2cnn(-c3ccccc3)c2n1 (stereo not shown) [화합물 22a, N-(2-클로로벤질)-6-(메틸설파이닐)-1-페닐-1H-피라졸로[3,4-d]피리미딘-4-아민] yielded an activity at 20 µM of 24 ± 12.9%. COc1ccccc1CNc1nc([S+](C)[O-])nc2c1cnn2-c1ccccc1 (stereo not shown) [화합물 22b, N-(2-메톡시벤질)-6-(메틸설파이닐)-1-페닐-1H-피라졸로[3,4-d]피리미딘-4-아민] was tested, and the activity at 20 µM was 28 ± 4.1%. CCCCNc1nc([S+](C)[O-])nc2c1cnn2-c1ccccc1 (stereo not shown) [화합물 22d, N-뷰틸-6-(메틸설파이닐)-1-페닐-1H-피라졸로[3,4-d]피리미딘-4-아민] showed an activity at 20 µM of 46 ± 8.3%. COc1ccccc1CNc1nc([S+](C)[O-])nc2c1cnn2-c1ccc(F)cc1 (stereo not shown) [화합물 22e, N-(2-메톡시벤질)-1-(4-플루오로페닐)-6-(메틸설파이닐)-1-페닐-1H-피라졸로[3,4-d]피리미딘-4-아민] was tested, and the activity at 20 µM was 31 ± 6.9%. In the case of COc1ccccc1CNc1nc([S+](C)[O-])nc2c1cnn2-c1ccc(C)cc1 (stereo not shown) [화합물 22g, N-(2-메톡시벤질)-6-(메틸설파이닐)-1-p-톨릴-1H-피라졸로[3,4-d]피리미딘-4-아민], the activity at 20 µM is reported as 42 ± 2.3%.
